Test systems include HL-60; NCI-H226; COLO 205; SN12C; UO-31; HOP-92; EKVX; MOLT-4; CAKI-1; HCT-116; SF-268; SNB-75; SR; NCI-H460; UACC-257; OVCAR-5; SK-OV-3; HCT-15.
Common to all, as to assay: NCI tumour cell line growth inhibition, 48 h

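Growth conditions: 96-well plates. Treatment: test compound, 48 hours, 5 concentrations. Analysis: linear interpolation between bracketing concentrations; unreached endpoints set to highest concentration. The concentration for 50% growth inhibition is given as GI50.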 Calls of active or inactive are those of the source. No stated cut-off is given here; in the data, active = GI50 up to about 1.1 µM and inactive = higher. Where only a bound is given, the exact number is not on record here.

In the case of `CCOC1=CP(=O)(OCC)CC(C)=C1Cl` (stereo not given), the GI50 is > 100 µM (inactive) with HL-60; > 100 µM (inactive) with NCI-H226; 7.21 µM (inactive) with COLO 205; > 100 µM (inactive) with SN12C; > 100 µM (inactive) in the assay with UO-31; > 100 µM (inactive) in the assay on HOP-92. Also, the GI50 in the assay on EKVX was > 100 µM (inactive); in the assay on MOLT-4 it was > 100 µM (inactive); with CAKI-1, > 100 µM (inactive); with HCT-116, > 100 µM (inactive); in the assay on SF-268, > 100 µM (inactive); with SNB-75 it was 30.4 µM (inactive). Besides, the GI50 in the assay on SR, in the assay with NCI-H460, with UACC-257, with OVCAR-5 and in the assay with SK-OV-3 was > 100 µM (inactive) throughout.
Regarding `Cc1cc(Cl)cc2c1NC(=O)C2(O)C(C)C(=O)c1ccc(Cl)cc1` (stereo not given), the GI50 is 3.15 µM (inactive) in the assay with HL-60; > 60.1 µM (inactive) in the assay on NCI-H226; 97.1 µM (inactive) in the assay on COLO 205; > 74.1 µM (inactive) with SN12C; > 100 µM (inactive) with UO-31; 33.9 µM (inactive) in the assay on HOP-92. Further, the GI50 in the assay on EKVX is > 81.5 µM (inactive); in the assay on MOLT-4, 28.4 µM (inactive); with CAKI-1 it was > 92.5 µM (inactive); with HCT-116, > 74.1 µM (inactive); with SF-268, > 71.9 µM (inactive); with SNB-75 it was > 59.3 µM (inactive). Moreover, the GI50 was > 66.2 µM (inactive) in the assay with SR; > 100 µM (inactive) in the assay on NCI-H460; 42.6 µM (inactive) in the assay with UACC-257; > 100 µM (inactive) in the assay on OVCAR-5; > 100 µM (inactive) in the assay with SK-OV-3; more than 89.1 µM with HCT-15.
With `O=C(O)COc1ccccc1C(=O)Nc1ccccc1`, the GI50 in the assay on HL-60, in the assay with NCI-H226, in the assay with COLO 205, with SN12C, with UO-31 and with HOP-92 was > 100 µM (inactive) in each case. Further, the GI50 is > 100 µM (inactive) with EKVX; > 100 µM (inactive) in the assay with MOLT-4; > 100 µM (inactive) in the assay on CAKI-1; > 100 µM (inactive) in the assay with HCT-116; > 100 µM (inactive) with SF-268; 77.8 µM (inactive) with SNB-75. Also, the GI50 is > 100 µM (inactive) with SR; > 100 µM (inactive) in the assay with NCI-H460; > 100 µM (inactive) in the assay with UACC-257; > 100 µM (inactive) in the assay with OVCAR-5; > 100 µM (inactive) in the assay with SK-OV-3; more than 100 µM in the assay on HCT-15.
As to `C#Cc1c(C)c(/C=C/C(C)=C/C=C/C(C)=C/C(=O)OC)n(C)c1C`, the GI50 in the assay with HL-60, in the assay with COLO 205, in the assay with UO-31, with HOP-92, in the assay on EKVX and with MOLT-4 was > 100 µM (inactive) each time. For the same compound, the GI50 with CAKI-1 was > 100 µM (inactive); in the assay on HCT-116, > 100 µM (inactive); with SF-268, > 100 µM (inactive); in the assay on SNB-75 it was 44.5 µM (inactive); in the assay with SR, > 100 µM (inactive); in the assay with NCI-H460, > 100 µM (inactive). The GI50 was > 100 µM (inactive) with UACC-257, > 100 µM (inactive) with OVCAR-5, 0.428 µM (active) with SK-OV-3 and more than 100 µM in the assay on HCT-15.
For `CCOC(=O)C1=C(Nc2ccc(Cl)cc2Cl)OC/C1=N\NS(=O)(=O)c1ccc(C)cc1`, the GI50 in the assay with HL-60, in the assay on NCI-H226, in the assay with COLO 205, in the assay on SN12C, in the assay with UO-31 and in the assay on HOP-92 was > 100 µM (inactive) in each case. The GI50 with EKVX is 91.6 µM (inactive); with MOLT-4 it was > 100 µM (inactive); in the assay with CAKI-1 it was > 100 µM (inactive); with HCT-116 it was > 100 µM (inactive); in the assay on SF-268 it was > 100 µM (inactive); with SNB-75, > 100 µM (inactive). Also, the GI50 with SR was > 100 µM (inactive); in the assay on NCI-H460 it was > 100 µM (inactive); in the assay with UACC-257, > 100 µM (inactive); in the assay with OVCAR-5 it was > 100 µM (inactive); with SK-OV-3, > 100 µM (inactive); in the assay with HCT-15, more than 100 µM.
On to `CC1=C[C@@H]2Cc3occc3C(C)(C)[C@@H]2CC1`, for which the GI50 in the assay on HL-60 was 19.3 µM (inactive); in the assay with NCI-H226, 17.9 µM (inactive); in the assay on COLO 205 it was 18.9 µM (inactive); with SN12C, 15.8 µM (inactive); in the assay on UO-31, 19.2 µM (inactive); in the assay with HOP-92, 19.5 µM (inactive). Besides, the GI50 with EKVX was 18 µM (inactive); with MOLT-4, 19.6 µM (inactive); in the assay on CAKI-1, 23.4 µM (inactive); with HCT-116, 19.4 µM (inactive); in the assay on SF-268, 20.2 µM (inactive); with SNB-75 it was 18.1 µM (inactive). Further, the GI50 was 14.5 µM (inactive) in the assay with SR, 22.5 µM (inactive) with UACC-257, 22.8 µM (inactive) with OVCAR-5 and 38.1 µM (inactive) with SK-OV-3.
As for `COC(=O)C1CCC[C@H]2C(CO)=C(C)C(=O)[C@@H]12` (stereo not given in full), the GI50 in the assay on HL-60, in the assay with NCI-H226, with COLO 205, in the assay on SN12C, in the assay with UO-31 and in the assay on HOP-92 was > 100 µM (inactive) throughout. In addition, the GI50 with EKVX, with MOLT-4, in the assay on CAKI-1, in the assay on HCT-116, in the assay with SF-268 and in the assay with SNB-75 was > 100 µM (inactive) throughout. The GI50 with SR is > 100 µM (inactive); in the assay with NCI-H460 it was > 100 µM (inactive); in the assay with UACC-257, > 100 µM (inactive); in the assay with OVCAR-5, > 100 µM (inactive); with SK-OV-3, > 100 µM (inactive); in the assay on HCT-15, more than 100 µM.
Regarding `CCOC(=O)NC(=O)c1cn(CCSCCOC(=O)NCCCCCCNC(=O)OCCSCCn2cc(C(=O)NC(=O)OCC)c(=O)n(C)c2=O)c(=O)n(C)c1=O`, the GI50 is 15.3 µM (inactive) with HL-60; 21.1 µM (inactive) in the assay with NCI-H226; 56.2 µM (inactive) in the assay on COLO 205; 21.8 µM (inactive) in the assay with SN12C; > 100 µM (inactive) in the assay with UO-31; 20.9 µM (inactive) in the assay with HOP-92. The GI50 in the assay on EKVX is > 100 µM (inactive); in the assay on MOLT-4 it was 5.68 µM (inactive); in the assay with HCT-116 it was 19.2 µM (inactive); in the assay with SF-268, 24 µM (inactive); in the assay with SNB-75 it was > 100 µM (inactive); in the assay with SR, 13.4 µM (inactive). Besides, the GI50 with NCI-H460 is 29.9 µM (inactive); in the assay with UACC-257, 24.4 µM (inactive); with OVCAR-5, > 100 µM (inactive); in the assay on SK-OV-3, 34.7 µM (inactive); with HCT-15 it was 86.3 µM.
For `Cc1cc(O)c2c(c1)C(=O)c1cc(O)cc(O)c1C2=O` [EMODIN], the GI50 in the assay with HL-60 was 26.9 µM (inactive); with NCI-H226, 20.1 µM (inactive); with COLO 205, 19.8 µM (inactive); with SN12C, 20.5 µM (inactive); with HOP-92, 14.4 µM (inactive); in the assay with MOLT-4, 31 µM (inactive). For the same compound, the GI50 was 17.1 µM (inactive) with CAKI-1; 24 µM (inactive) with HCT-116; 22 µM (inactive) in the assay with SF-268; 32.6 µM (inactive) with SNB-75; 23.4 µM (inactive) in the assay on SR; 20.3 µM (inactive) in the assay with NCI-H460. Besides, the GI50 was 28.1 µM (inactive) in the assay with UACC-257, 39.4 µM (inactive) with OVCAR-5, 30.7 µM (inactive) in the assay with SK-OV-3 and 22.9 µM with HCT-15.
For `O=C(O)/C=C/c1ccncc1`, the GI50 in the assay on HL-60, in the assay on NCI-H226, with COLO 205, in the assay on SN12C, in the assay on UO-31 and with HOP-92 was > 100 µM (inactive) each time. Also, the GI50 in the assay with EKVX, in the assay with MOLT-4, in the assay on CAKI-1, in the assay with HCT-116, with SF-268 and in the assay with SNB-75 was > 100 µM (inactive) each time. Moreover, the GI50 in the assay on SR is > 100 µM (inactive); with NCI-H460, > 100 µM (inactive); in the assay on UACC-257, > 100 µM (inactive); in the assay with OVCAR-5, > 100 µM (inactive); in the assay on SK-OV-3, > 100 µM (inactive); with HCT-15 it was 14.5 µM.
Regarding `O=c1nc(-c2ccccc2)scc1-c1ccccc1`, the GI50 with HL-60 is > 100 µM (inactive); with NCI-H226, > 100 µM (inactive); in the assay on COLO 205, > 100 µM (inactive); in the assay with SN12C, > 100 µM (inactive); in the assay with UO-31, > 100 µM (inactive); in the assay with HOP-92, 67.9 µM (inactive). Moreover, the GI50 was > 100 µM (inactive) in the assay on EKVX; > 100 µM (inactive) in the assay with MOLT-4; > 100 µM (inactive) in the assay with CAKI-1; > 100 µM (inactive) with HCT-116; 86.3 µM (inactive) in the assay with SF-268; > 100 µM (inactive) in the assay on SNB-75. Moreover, the GI50 in the assay with SR is > 100 µM (inactive); in the assay with NCI-H460, > 100 µM (inactive); with UACC-257, > 100 µM (inactive); in the assay on SK-OV-3 it was > 100 µM (inactive); in the assay with HCT-15, more than 100 µM.
As for `CS/C(=N\C(=S)N(C)C)N(c1ccccc1)c1nc(N(C)C)s[s+]1`, the GI50 was 1.61 µM (inactive) with HL-60; 2 µM (inactive) with COLO 205; 13.1 µM (inactive) in the assay with SN12C; 27.9 µM (inactive) in the assay on UO-31; 20.9 µM (inactive) with HOP-92; 16 µM (inactive) with EKVX. Besides, the GI50 is 3.08 µM (inactive) in the assay with MOLT-4; 29 µM (inactive) in the assay with CAKI-1; 10 µM (inactive) in the assay on HCT-116; 12.1 µM (inactive) with SF-268; 3.18 µM (inactive) in the assay on SNB-75; 3.98 µM (inactive) in the assay with SR. Further, the GI50 was 2.91 µM (inactive) in the assay on NCI-H460, 3.95 µM (inactive) in the assay with UACC-257, 41.3 µM (inactive) in the assay on SK-OV-3 and 19.8 µM with HCT-15.
